Ends that are not written are not given here.
Assays:
skeletal muscle atrophy = test: Animal models of skeletal muscle atrophy, summary of FIGS. 1-5; format: in vivo; conditions: theophylline alone
[1] = test system: glucocorticoid-induced atrophied tibialis anterior and medial gastrocnemius muscles; test: Mouse glucocorticoid (dexamethasone)-induced atrophy model (FIG. 3); format: in vivo; conditions: male mice, dexamethasone 1.2 mg/kg/d in drinking water; 0.1 and 0.3 mg/kg s.c. 2x daily + theophylline 30 mg/kg i.p., nine days
Protocol: Legend for the X-axis: 1: Saline+Dexamethasone (1.2 mg/kg/day included in the drinking water), 2: PACAP-38 (0.1 mg/kg)+Dexamethasone+T, 3: PACAP-38 (0.3 mg/kg)+Dexamethasone+T, 4: VPAC1R agonist (0.1 mg/kg)+Dexamethasone+T, 5: VPAC1R agonist (0.3 mg/kg)+Dexamethasone+T, 6: VPAC2R agonist (0.1 mg/kg)+Dexamethasone+T, 7: VPAC2R agonist (0.3 mg/kg)+Dexamethasone+T.
(VPAC1R agonist), the VPAC2 receptor selective agonist, Ro 25-1553 (VPAC2R agonist), or the VPAC1/VPAC2 receptor nonselective agonist, PACAP-38. Following the addition of the glucocorticoid, dexamethasone to the drinking water (1.2 mg/kg/d), male mice were injected subcutaneously in the midscapular region twice daily, with either the above indicated agents at the doses indicated in FIGS. 3A and 3B or vehicle control (physiological saline) for nine days. These agonists were co-administered with twice daily intra-peritoneal dosing of the phosphodiesterase inhibitor theophylline (T—30 mg/kg). Nine days following the initiation of dosing of the VPAC receptor agonists and dexamethasone, the medial gastrocnemius and tibialis anterior muscles were removed and weighed to determine the degree of atrophy. […] Statistical significance of the results were determined using ANCOVA.
The glucocorticoid induced atrophy model involves the administration of a glucocorticoid to the test animal, e.g. 1.2 mg/kg/day of dexamethasone in the drinking water. Typically, in untreated animals, skeletal muscle mass is reduced 30-50% following ten days of dexamethasone administration. Concomitantly with, or following glucocorticoid administration, test compounds are administered e.g., by injection or by continuous infusion to determine their effect on glucocorticoid induced skeletal muscle atrophy. At various times following glucocorticoid administration, the extent of atrophy in the affected muscles is analyzed as described above for the denervation model.

[2] = test system: denervated tibialis anterior and medial gastrocnemius muscles; test: Mouse denervation atrophy model, agonists subcutaneously 2x daily with theophylline (FIG. 1); format: in vivo; conditions: male mice, right sciatic nerve denervation; 0.1 and 0.3 mg/kg s.c. 2x daily + theophylline 30 mg/kg i.p. 2x daily, nine days; versus saline
Protocol: Legend for the X-axis: A: Saline, B: VPAC1R agonist (0.1 mg/kg)+T, C: VPAC1R agonist (0.3 mg/kg)+T, D: VPAC2R agonist (0.1 mg/kg)+T, E: VPAC2R agonist (0.3 mg/kg)+T, F: PACAP-38 (0.1 mg/kg)+T, G: PACAP-38 (0.3 mg/kg)+T.
(VPAC1R agonist), the VPAC2 receptor selective agonist, Ro 25-1553 (VPAC2R agonist), or the VPAC1/VPAC2 receptor nonselective agonist, PACAP-38. Following denervation of the right sciatic nerve, male mice were injected subcutaneously in the midscapular region twice daily, with either the above indicated agents at the doses indicated in FIGS. 1A and 1B or vehicle control (physiological saline) for nine days. These agonists were co-administered with twice daily intra-peritoneal dosing of the phosphodiesterase inhibitor theophylline (T-30 mg/kg) (included to increase the magnitude and the duration of action of cAMP signals induced by the VPAC receptor agonists). On day nine, the medial gastrocnemius and tibialis anterior muscles were removed and weighed to determine the degree of atrophy. […] Statistical significance of the results were determined using ANCOVA (Douglas C. Montgomery, Design and Analysis of Experiments, John Wiley and Sons, New York (2nd ed. 1984)).
The sciatic nerve denervation atrophy model involves anesthetizing the animal followed by the surgical removal of a short segment of either the right or left sciatic nerve, e.g. in mice the sciatic nerve is isolated approximately at the midpoint along the femur and a 3-5 mm segment is removed. This denervates the lower hind limb musculature resulting in atrophy of these muscles. Typically, innervation to the biceps femoris is left intact to provide satisfactory motion of the knee for virtually normal ambulation. Typically, in untreated animals, muscle mass of the denervated muscles is reduced 30-50% ten days following denervation. Following denervation, test compounds are administered e.g., by injection or by continuous infusion, e.g. via implantation of an osmotic minipump (e.g. Alza, Palo Alto, Calif.), to determine their effect on denervation induced skeletal muscle atrophy. At various times following denervation, the animals are euthanized and lower leg muscles are dissected rapidly from both the denervated and nondenervated legs, the muscles, cleaned of tendons and connective tissue, are weighed. The extent of atrophy in the affected muscles is analyzed, for example, by measuring muscle mass, muscle cross-sectional area, myofiber cross-sectional area or contractile protein content.

[3] = test system: denervated tibialis anterior and extensor digitorum longus (EDL) muscles; test: Rat denervation atrophy model (FIG. 5); format: in vivo; conditions: male rats, right sciatic nerve denervation; 0.03, 0.1, 0.3 mg/kg s.c. 2x daily + theophylline 30 mg/kg i.p., nine days
Protocol: (§1) Legend for the X-axis: A: Saline, B: VPAC2R agonist (0.03 mg/kg)+T, C: VPAC2R agonist (0.1 mg/kg)+T, D: VPAC2R agonist (0.3 mg/kg)+T.
Following denervation of the right sciatic nerve, male rats were injected subcutaneously in the midscapular region twice daily, with either the VPAC2R receptor agonist at the doses indicated in FIGS. 5A and 5B or vehicle control (physiological saline) for nine days. The VPAC2R receptor agonist was co-administered with twice daily intra-peritoneal dosing of the phosphodiesterase inhibitor theophylline (T—30 mg/kg). On day nine, the tibialis anterior and extensor digitorum longus (EDL) muscles were removed and weighed to determine the degree of atrophy. […] Statistical significance of the results were determined using ANCOVA.
(§2) The sciatic nerve denervation atrophy model involves anesthetizing the animal followed by the surgical removal of a short segment of either the right or left sciatic nerve, e.g. in mice the sciatic nerve is isolated approximately at the midpoint along the femur and a 3-5 mm segment is removed. This denervates the lower hind limb musculature resulting in atrophy of these muscles. […] The extent of atrophy in the affected muscles is analyzed, for example, by measuring muscle mass, muscle cross-sectional area, myofiber cross-sectional area or contractile protein content.

[4] = test system: denervated and non-denervated (control) tibialis anterior and medial gastrocnemius muscles; test: Mouse denervation atrophy model, continuous infusion by osmotic minipump (FIG. 2); format: in vivo; conditions: male mice, continuous infusion by osmotic minipump 0.3, 1, 3 mg/kg daily, no theophylline, day nine
Protocol: Legend for the X-axis: A: water infused, B: VPAC1R agonist (0.3 mg/kg), C: VPAC1R agonist (1 mg/kg), D: VPAC1R agonist (3 mg/kg), E: VPAC2R agonist (0.3 mg/kg), F: VPAC2R agonist (1 mg/kg), G: VPAC2R agonist (3 mg/kg), H: PACAP-38 (0.3 mg/kg), I: PACAP-38 (1 mg/kg), PACAP-38 (3 mg/kg).
(VPAC1R agonist), the VPAC2 receptor selective agonist, Ro 25-1553 (VPAC2R agonist), or the VPAC1/VPAC2 receptor nonselective agonist, PACAP-38. Following denervation of the right sciatic nerve, male mice were dosed with the above indicated agents or vehicle control (physiological saline) by continuous infusion using an ALZeT osmotic minipump at 5 μl/hr until the end of the experimental period. The daily delivered dose of the agents are as indicated on FIGS. 2A and 2B. Minipump implantation was performed at the same time as the sciatic nerve denervation. On day nine the medial gastrocnemius and tibialis anterior muscles were removed and weighed to determine the degree of atrophy. […] Statistical significance of the results were determined using ANCOVA.
as §2, with “muscles. Typically, innervation to the biceps femoris is left intact to provide satisfactory motion of the knee for virtually normal ambulation. Typically, in untreated animals, muscle mass of the denervated muscles is reduced 30-50% ten days following denervation.” for “muscles.”

[5] = test system: atrophy of the skeletal muscle of the entire body due to disuse; test: Prophylactic treatment of skeletal muscle atrophy in a comatose subject (Example 11); format: in vivo; conditions: human 50 kg, 3 ml of 500 mg/ml with D,L lactic and glycolic acid copolymer i.m. once each month
Protocol: A human subject weighing 50 kg is admitted to the hospital in a comatose state. The subject is treated to prevent atrophy of the skeletal muscle of the entire body due to disuse while in the comatose state. Specifically, once each month while in the coma, the subject is administered, via intramuscular injection, 3 ml of an aqueous solution of pH 6.0 comprising the following: […]

[6] = test system: casting-induced atrophied tibialis anterior muscle and normal medial gastrocnemius muscle; test: Mouse disuse (casting) atrophy model (FIG. 4); format: in vivo; conditions: male mice, right hind leg cast; 0.03, 0.1, 0.3 mg/kg s.c. 2x daily + theophylline 30 mg/kg i.p., nine days
Protocol: as §1
Following casting of the right hind leg, male mice were injected subcutaneously in the midscapular region twice daily, with either the above indicated agent at the doses indicated in FIGS. 4A and 4B or vehicle control (physiological saline) for nine days. The VPAC2R agonist was co-administered with twice daily intra-peritoneal dosing of the phosphodiesterase inhibitor theophylline (T—30 mg/kg). On day nine, the medial gastrocnemius and tibialis anterior muscles were removed and weighed to determine the degree of atrophy. […] Statistical significance of the results were determined using ANCOVA.
The leg casting disuse atrophy model involves casting one hind leg of an animal from the knee down through the foot. Typically, muscle mass is reduced 20-40% after ten days of casting. Following casting, test compounds are administered by injection or by continuous infusion via implantation of an osmotic minipump (e.g. Alza, Palo Alto, Calif.) to determine their effect on leg casting induced skeletal muscle atrophy. At various times following leg casting, the extent of atrophy in the affected muscles is analyzed as described above for the denervation model.

VPAC2 receptor = molecular target: T1, VPAC2 receptor (Homo sapiens, UniProt P41587); conditions: relative to PACAP38; cited from earlier work
T1 sequence (P41587 24-438): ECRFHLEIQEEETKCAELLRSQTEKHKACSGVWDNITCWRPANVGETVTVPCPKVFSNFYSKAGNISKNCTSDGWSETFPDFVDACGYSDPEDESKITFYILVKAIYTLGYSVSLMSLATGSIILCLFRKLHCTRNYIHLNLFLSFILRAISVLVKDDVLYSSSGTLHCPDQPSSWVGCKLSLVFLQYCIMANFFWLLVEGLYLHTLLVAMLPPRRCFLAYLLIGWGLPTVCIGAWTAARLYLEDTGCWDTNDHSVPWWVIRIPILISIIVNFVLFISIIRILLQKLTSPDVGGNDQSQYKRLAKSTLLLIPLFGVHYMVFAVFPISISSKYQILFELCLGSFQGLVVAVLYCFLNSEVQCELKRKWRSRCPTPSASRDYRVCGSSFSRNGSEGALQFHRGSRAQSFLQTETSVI

VPAC1 receptor = molecular target: T2, VPAC1 receptor (Homo sapiens, UniProt P32241); conditions: relative to PACAP38; cited from earlier work
T2 sequence (P32241 31-457): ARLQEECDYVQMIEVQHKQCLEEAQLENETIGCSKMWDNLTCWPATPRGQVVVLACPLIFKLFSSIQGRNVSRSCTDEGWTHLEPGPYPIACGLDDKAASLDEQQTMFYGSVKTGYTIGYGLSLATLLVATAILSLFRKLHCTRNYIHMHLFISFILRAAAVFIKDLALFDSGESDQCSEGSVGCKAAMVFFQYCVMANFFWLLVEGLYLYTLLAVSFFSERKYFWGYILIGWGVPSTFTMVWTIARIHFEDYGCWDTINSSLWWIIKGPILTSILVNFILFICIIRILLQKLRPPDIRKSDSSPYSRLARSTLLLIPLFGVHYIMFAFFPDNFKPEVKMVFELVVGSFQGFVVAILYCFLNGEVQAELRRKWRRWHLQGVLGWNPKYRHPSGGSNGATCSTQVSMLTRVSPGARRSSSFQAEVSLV

In the case of `Cn1c(=O)c2[nH]cnc2n(C)c1=O` [Theophylline, theophylline], the “effect of theophylline administered by itself in the atrophy models” value (skeletal muscle atrophy) is reported as “no effect”.
For “PACAP-38 (HSDGIFTDSYSRYRKQMAVKKYLAAVLGKRYKQRVKNK; ends and bridges not checked; UniProt P18509 132-169, looked up)”, the “muscle atrophy of the medial gastrocnemius induced by glucocorticoid administration (FIG. 3B)” value [1] was “inhibits muscle atrophy”, the “atrophy of the denervated medial gastrocnemius muscle (muscle weight, FIG. 1B)” value (“atrophy … (muscle weight, FIG. 1B)” below) [2] was “inhibited atrophy” and the “atrophy of the denervated tibialis anterior muscle (muscle weight, FIG. 1A)” value [2] was “inhibited atrophy”.
With Ro 25-1553 the “atrophy of the denervated EDL muscle (FIG. 5B)” value [3] was “inhibited atrophy”, the “atrophy of the denervated tibialis anterior muscle (FIG. 5A)” value [3] was “inhibited atrophy” and the “muscle atrophy of the medial gastrocnemius induced by glucocorticoid administration (FIG. 3B)” value [1] was “inhibited muscle atrophy”. The “muscle atrophy of the tibialis anterior induced by glucocorticoid administration (FIG. 3A)” value [1] was “inhibited muscle atrophy”, the “atrophy of the denervated tibialis anterior muscle (muscle weight, FIG. 2A)” value ([4]; sciatic denervation) was “inhibited atrophy” and the “hypertrophy of the non-denervated (control) medial gastrocnemius muscle (FIG. 2B)” value [4] was “induced hypertrophy”. The “hypertrophy of the non-denervated (control) tibialis anterior muscle (FIG. 2A)” value [4] was “induced hypertrophy”, the “skeletal muscle mass and physical therapy needs” value [5] was “measurable preservation of skeletal muscle mass and reduced physical therapy needs” and the “disuse-induced atrophy of the tibialis anterior muscle (FIG. 4A)” value [6] was “inhibited disuse-induced atrophy”. The “hypertrophy of the medial gastrocnemius muscle (normal, FIG. 4B)” value [6] was “induced hypertrophy”, the “atrophy … (muscle weight, FIG. 1B)” value [2] was “inhibited atrophy” and the “atrophy of the denervated tibialis anterior muscle (muscle weight, FIG. 1A)” value [2] was “inhibited atrophy”. The “potency as VPAC2 receptor selective agonist” value (VPAC2 receptor) was “potency similar to PACAP38”.
For “[K^15, R^16, L^27VIP(1-7), GRF(8-27)-NH2]”, the “muscle atrophy of the tibialis anterior induced by glucocorticoid administration (FIG. 3A)” value [1] is listed as “inhibited muscle atrophy”, the “potency as VPAC1 receptor selective agonist” value (VPAC1 receptor) is listed as “potency similar to PACAP38” and the “atrophy … (muscle weight, FIG. 1B)” value [2] is listed as “inhibited atrophy”.

From patent publication US6750194B1, “Methods of identifying compounds for regulating muscle mass or function using vasoactive intestinal peptide receptors” (The Procter & Gamble Company, priority 2000, dated 2004)
